In US9109041B2, “Analog compounds of analgesic peptides derived from the venom of crotalus durissus terrificus snakes, their uses, compositions, methods of preparation and purification” (priority 2004, dated 2015):

Columns and labels:
[1] = test system: hyperalgesia induced by chronic constriction of the sciatic nerve; test: hyperalgesia induced by chronic constriction of the sciatic nerve (rat paw pressure test); assay type: in vivo; settings: saline + antagonist alone i.pl. (ICI 10, nor-BNI 50, CTOP 20 μg/paw); for pain threshold, FM 1 h: 1 h after treatment; for pain threshold, MF 3 h: 3 h after treatment; for pain threshold, BM: before surgery; for pain threshold, IM: day 14, before treatment
Method: (§1) For the induction of neuropathic pain, surgery was performed in the sciatic nerve, in accordance with the method described by Bennett, G. J and Xie, Y. K. (Pain, 33:87-107, 1988). The animals were anesthetized with halothane. The sciatic nerve was exposed in the middle region of the thigh, moving away the femoral biceps muscle. Close to the trifurcation of the sciatic nerve, 7 mm of distance from the trifurcation, 4 loose ligations were performed (chromed catgut 4-0) around it, distant from each other in approximately 1 mm. The bindings were performed along the nerve, up to 4-5 mm from the initial point. The incision was sutured in layers, using silk suture thread number 4-0.
The test was applied before (BM-basal measurement) and on the 14th day after the surgery, to characterize the development of neuropathic pain.
The results were analyzed by comparing the means of the basal and initial measurements or by comparing the means of the initial and final measurements or, when determined, through the comparison of the means obtained in the different experimental groups.
(§2) For this purpose, the animals were treated with CTOP, a specific μ receptor antagonist (20 μg/paw), nor-BNI, a specific κ receptor antagonist (50 μg/paw) or with ICI 174,864, a specific δ receptor antagonist (10 μg/paw). The antagonists were injected, by intraplantar route. The peptide was administered in the dose of 5 μg/kg, orally, immediately before the injection of the opioid antagonists.
(§3) The results were analyzed comparing the mean values of the basal and initial measurements, or of the initial and final measurements or, when determined, by comparing the mean values obtained in the different experimental groups (Tables 15 and 16).

[2] = test system: allodynia induced by constriction of the sciatic nerve; test: allodynia induced by chronic constriction of the sciatic nerve (von Frey hairs); assay type: in vivo, rat; settings: saline + antagonist alone i.pl. (ICI 10, nor-BNI 50, CTOP 20 μg/paw); for paw withdrawal threshold (allodynia), FM 1 h: 1 h after treatment; for paw withdrawal threshold (allodynia), FM 3 h: 3 h after treatment; for paw withdrawal threshold (allodynia), BM: before surgery; for paw withdrawal threshold (allodynia), IM: day 14, before treatment
Method: as §1
Allodynia was evaluated for quantitative testing, in response to tactile stimulus applied to the paws of the rat, according to the method described by Chaplan el al. (1994), modified. In this test, the rats were placed, individually, in plastic cages, with meshed wire at the bottom, to allow access to the paws of these animals. Briefly, a logarithmic series of 10 calibrated Semmes-Weinstein monofilaments (von Frey hairs, Aesthesiometer Semmer-Weinstein, Stoelting Co., E.U.A) was applied to the right hind paw to determine the stimulus intensity threshold stiffness required to elicit a paw withdrawal response. Log stiffness of the hairs is determined by log 10 (mg×10) having the following values (the value in grams is between parenthesis): 3.61 (0.407 g); 3.84 (0.692 g); 4.08 (1.202 g); 4.17 (1.479 g); 4.31 (2.041 g); 4.56 (3.630 g); 4.74 (5.495 g); 4.93 (8.511 g); 5.07 (11.749 g) and 5.18 (15.136 g). It is important to point out that the filaments with weight greater than 15.136 g were not employed in the studies of allodynia.
The filaments were applied, one by one, perpendicularly, under the plantar area of both hind paws and maintained for a period of 8 seconds. The filament capable of eliciting the withdrawal of the paw, two consecutive times, was considered as the force in grams necessary to elicit the response (100% of response). In the absence of a response to the greater stimulus (15.135 g), this filament was considered as cut value.
The behavioral responses were used to calculate the 50% paw withdrawal threshold (absolute threshold), by fitting a gaussian integral psychometric function, using a maximum-likelihood fitting method. This fitting method allows parametric analyses.
The period of the application of the test and the treatments were the same as those used for determination of hyperalgesia (Table 12).
The results were analyzed by comparing the means of the basal and initial measurements or, when determined, by comparing the means obtained in the different experimental groups.
as §2, §3

[3] = test system: prostaglandin E2-induced hyperalgesia; test: rat paw pressure test, prostaglandin E2-induced hyperalgesia; settings: for pain threshold, IM (g) ± S.E.M.: saline p.o. + antagonist alone i.pl. (ICI174,864 10 μg/paw; nor-BNI 50 μg/leg; CTOP 20 μg/leg), before PGE2; for pain threshold, FM (g) ± S.E.M: saline p.o. + antagonist alone i.pl. with PGE2 (ICI174,864 10 μg/paw; nor-BNI 50 μg/leg; CTOP 20 μg/leg), 3 h after PGE2

## Oc1ccc2c3c1O[C@H]1c4[nH]c5c(c4C[C@@]4(O)[C@@H](C2)N(CC2CC2)CC[C@]314)C[C@@]1(O)[C@H]2Cc3ccc(O)c4c3[C@@]1(CCN2CC1CC1)[C@H]5O4 [nor-BNI, nor-Binalthorphimine, reference compound]
[1]
  pain threshold, FM 1 h: 32 ± 1.22 g
  pain threshold, MF 3 h: 31 ± 1.00 g
  pain threshold, BM: 72 ± 1.22 g
  pain threshold, IM: 32 ± 1.22 g
[2]
  paw withdrawal threshold (allodynia), FM 1 h: 4.22 ± 0 log 10 (mg × 10)
  paw withdrawal threshold (allodynia), FM 3 h: 4.22 ± 0 log 10 (mg × 10)
  paw withdrawal threshold (allodynia), BM: 5.08 ± 0 log 10 (mg × 10)
  paw withdrawal threshold (allodynia), IM: 4.22 ± 0 log 10 (mg × 10)
[3]
  pain threshold, IM (g) ± S.E.M.: 72 ± 1.44 g
  pain threshold, FM (g) ± S.E.M: 56 ± 1.25 g

## CTOP [reference compound]
[1]
  pain threshold, FM 1 h: 30 ± 1.58 g
  pain threshold, MF 3 h: 30 ± 1.58 g
  pain threshold, BM: 72 ± 1.22 g
  pain threshold, IM: 28 ± 1.22 g
[2]
  paw withdrawal threshold (allodynia), FM 1 h: 4.22 ± 0 log 10 (mg × 10)
  paw withdrawal threshold (allodynia), FM 3 h: 4.22 ± 0 log 10 (mg × 10)
  paw withdrawal threshold (allodynia), BM: 5.08 ± 0 log 10 (mg × 10)
  paw withdrawal threshold (allodynia), IM: 4.22 ± 0 log 10 (mg × 10)
[3]
  pain threshold, IM (g) ± S.E.M.: 74 ± 2.39 g
  pain threshold, FM (g) ± S.E.M: 56 ± 2.39 g
